Assay results as given in patent US6284768A, “Src family SH2 domain inhibitors” (Boehringer Ingelheim Pharmaceuticals, Inc., priority 1999, dated 2001).

Molecular target: T1, p56lck GST-SH2 (lck SH2 domain) (Homo sapiens, UniProt P06239)
T1 construct: GST (N)
Experiment: Receptor-ligand equilibrium binding constants by surface plasmon resonance (biosensor), lck SH2 domain
Conditions: Table 1, compounds of formula (II)
Method: The general methods for the determination of Receptor-Ligand Kinetic and Equilibrium Binding Constants using Surface Plasmon Resonance as applied to the lck SH2 Domain have been described in: M. M. Morelock, R. H. Ingraham, R. Betageri.
General Biosensor Methods.
The mobile phase buffer, 10 mM HEPES, pH 7.4, 150 mM NaCl, and 0.05% P-20, was maintained at a flow rate of 5 μL/min in all experiments. All buffers and protein solutions were filtered through a 0.2 um filter and degassed immediately before use.
Strepavidin was diluted to 0.25 mg/ml in 20 mM NaOAc buffer, pH 4.5 and immobilized by free amine coupling to approximately 3000 RU for all 4 flow cells from a single sensor chip .
Surface Kd Determinations.
The surface was regenerated by 4μL of 20 mM HCl followed by 4 μL of 150 mM Tris base. The values used in the analysis were the equilibrium plateau values from which the sample refractive index has been subtracted. For the data analyzed for linear function the equilibrium plateau values without the sample refractive index subtracted were used. Free solution Kd determinations. In a 96 well microtiter plate 20 nM SH2 domain suspended in running buffer containing 0.2 mg/ml BSA and 1 mM DT'T was distributed in 100 μL per well. The highest concentration of compound tested was added to the last well and titrated with 2 fold dilutions for a final of 10 concentrations to be run. 25 μL of the mixture was injected over a strepavidin-biotin-ε-aminohexanoic acid-EGQpYEEIPIA surface and regenerated with 4 μL of 20 mM HCl. […], of 150 mM Tris base was injected after every 11 samples. Typically 8 assays were run in an overnight programmed run.

T1 sequence (P06239 127-224 limits assumed): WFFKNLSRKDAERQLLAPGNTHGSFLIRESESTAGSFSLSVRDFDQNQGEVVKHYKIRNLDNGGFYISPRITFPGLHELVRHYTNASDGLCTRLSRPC

| SMILES | Kd [µM] |
| --- | --- |
| COc1ccc(Cn2ccc(C)c(NC(=O)C(Cc3ccc(C(C)(C)C(=O)O)cc3)N(C)C(=O)Cc3ccc4ccccc4c3)c2=O)cc1 (racemic) [Compound 152, 3-[2'-(R,S)-(N-Methyl-N-(2""-naphthylacetyl)amino-3'-[4"-(1'"-carboxy-1'"-methyl)ethyl]benzene]propanoylamino-1-(4-methoxybenzyl)-4-methyl-2-pyridone] | 4.5 |
| COc1ccc(Cn2ccc(C)c(NC(=O)[C@H](Cc3ccc(CC(=O)O)cc3)NC(=O)Cc3ccccc3)c2=O)cc1 [Compound 58] | 5.6 |
| CCCCCn1ccc(C)c(NC(=O)[C@H](Cc2ccc(CC(=O)O)cc2)NC(=O)Cc2cccc3ccccc23)c1=O [Compound 70] | 24 |
| Cc1ccn(Cc2ccc(C(C)C)cc2)c(=O)c1NC(=O)[C@H](Cc1ccc(C(C)(C)C(=O)O)cc1)NC(=O)Cc1cccc2ccccc12 [Compound 101] | 4.3 |
| COCCOCn1ccc(C)c(NC(=O)C(Cc2ccc(C(C)(C)C(=O)O)cc2)NC(=O)C(C)(C)c2ccc3ccccc3c2)c1=O (centres unmarked) [Compound 190] | 43 |
| COc1ccc(Cn2ccc(C)c(NC(=O)[C@H](Cc3ccc(CC(=O)O)cc3)NC(=O)C(F)(F)F)c2=O)cc1 [Compound 87] | 18 |
| COc1ccc(Cn2ccc(C)c(NC(=O)[C@H](Cc3ccc(CC(=O)O)cc3)NC(=O)[C@@H](C)c3ccc4cc(OC)ccc4c3)c2=O)cc1 [Compound 62] | 8.8 |
| COc1ccc(Cn2ccc(C)c(NC(=O)[C@H](Cc3ccc(N(O)C(=O)C(=O)O)cc3)NC(=O)Cc3ccc(N(C)C)cc3)c2=O)cc1 [Compound 26] | 4.3 |
| COc1ccc(Cn2ccc(C)c(NC(=O)[C@H](Cc3ccc(CC(=O)O)cc3)NC(=O)Cc3cc4ccccc4[nH]3)c2=O)cc1 [Compound 41] | 4.7 |
| Cc1ccn(Cc2ccc(C(C)C)cc2)c(=O)c1NC(=O)[C@H](Cc1ccc(N(O)C(=O)C(=O)O)cc1)NC(=O)Cc1ccc(N(C)C)cc1 [Compound 96] | 23 |
| COc1ccc(Cn2ccc(C)c(NC(=O)[C@H](Cc3ccc(NC(=O)C(=O)O)cc3)NC(=O)Nc3cccc4ccccc34)c2=O)cc1 [Compound 9] | 64.5 |
| Cc1ccn(Cc2ccc(OC(C)C)cc2)c(=O)c1NC(=O)[C@H](Cc1ccc(CC(=O)O)cc1)NC(=O)Cc1cccc2ccccc12 [Compound 51] | > 69 |
| COCCOCCn1ccc(C)c(NC(=O)C(Cc2ccc(C(C)(C)C(=O)O)cc2)NC(=O)C(C)(C)c2ccc3ccccc3c2)c1=O (centres unmarked) [Compound 144] | 20 |
| COc1cccc(Cn2ccc(C)c(NC(=O)[C@H](Cc3ccc(CC(=O)O)cc3)NC(=O)Cc3cccc4ccccc34)c2=O)c1 [Compound 20] | 19.4 |
| COc1ccc(Cn2cccc(NC(=O)[C@H](Cc3ccc(CC(=O)O)cc3)NC(=O)Cc3cccc4ccccc34)c2=O)cc1 [Compound 90] | > 250 |
| Cc1ccn(Cc2ccccn2)c(=O)c1NC(=O)[C@H](Cc1ccc(CC(=O)O)cc1)NC(=O)Cc1cccc2ccccc12 [Compound 23] | 55.7 |
| COc1ccc(Cn2ccc(C)c(NC(=O)[C@H](Cc3ccc(NC(=O)C(=O)O)cc3)NC(=O)Cc3csc(NC=O)n3)c2=O)cc1 [Compound 13] | 4.6 |
| Cc1ccn(CC2CCOC2)c(=O)c1NC(=O)C(Cc1ccc(C(C)(C)C(=O)O)cc1)NC(=O)Cc1cccc2ccccc12 (centres unmarked) [Compound 210] | 15 |
| CCC(=O)N[C@@H](Cc1ccc(CC(=O)O)cc1)C(=O)Nc1c(C)ccn(Cc2ccc(OC)cc2)c1=O [Compound 74] | 14 |
| COc1ccc(Cn2ccc(C)c(NC(=O)[C@H](Cc3ccc(NC(=O)C(=O)O)cc3)NC(=O)Nc3ccc(C(C)C)cc3)c2=O)cc1 [Compound 103] | 12 |
| Cc1ccn(CC=CCC2CCCCC2)c(=O)c1NC(=O)[C@H](Cc1ccc(CC(=O)O)cc1)NC(=O)Cc1cccc2ccccc12 [Compound 12] | > 250 |
| COc1ccc(Cn2cc(Br)c(C)c(NC(=O)C(Cc3ccc(C(C)(C)C(=O)O)cc3)NC(=O)C(C)(C)c3ccc(Br)cc3)c2=O)cc1 (centres unmarked) [Compound 122] | 5.3 |
| Cc1ccn(Cc2ccc(OC(F)(F)F)cc2)c(=O)c1NC(=O)[C@H](Cc1ccc(CC(=O)O)cc1)NC(=O)Cc1cccc2ccccc12 [Compound 53, 3-[2'-(S)-(1'"-Naphthyl)acetlyamino-3'-(4"-carboxymethyl)benzene]propanoylamino-1-(4-trifluoromethoxybenzyl)-4-methyl-2-pyridone] | 12.7 |
| COc1cc(Cn2ccc(C)c(NC(=O)C(Cc3ccc(C(C)(C)C(=O)O)cc3)NC(=O)Cc3ccc4ccccc4c3)c2=O)cc(OC)c1OC (centres unmarked) [Compound 157] | 21 |
| COc1ccc(C(C)n2ccc(C)c(NC(=O)[C@H](Cc3ccc(CC(=O)O)cc3)NC(=O)C(C)(C)C)c2=O)cc1 (some centres unmarked) [Compound 82] | 32 |
| COc1ccc(Cn2ccc(C)c(NC(=O)[C@H](Cc3ccc(C(C)(C)C(=O)O)cc3)NC(=O)Cc3ccc(N(Cc4ccccc4)Cc4ccccc4)cc3)c2=O)cc1 [Compound 131] | > 1.3 |
| COC1CCC(Cn2ccc(C)c(NC(=O)C(Cc3ccc(C(C)(C)C(=O)O)cc3)NC(=O)Cc3ccc4ccccc4c3)c2=O)CC1 (centres unmarked) [Compound 239] | 3.2 |

The remaining compounds from weak to strong by Kd, led by results:

| Kd [µM] | SMILES |
| --- | --- |
| 2.4 | COc1ccc(Cn2ccc(CCO)c(NC(=O)C(Cc3ccc(C(C)(C)C(=O)O)cc3)NC(=O)C(C)(C)c3ccc4ccccc4c3)c2=O)cc1 (centres unmarked) [Compound 223] |
| 2.4 | COc1ccc(Cn2ccc(C)c(NC(=O)[C@H](Cc3ccc(NC(=O)C(=O)O)cc3)NC(=O)Cc3ccccc3[N+](=O)[O-])c2=O)cc1 [Compound 34] |
| 2.3 | COc1ccc(Cn2ccc(C)c(NC(=O)[C@H](Cc3ccc(NC(=O)C(=O)O)cc3)NC(=O)Cc3ccc(-n4c(C)ccc4C)cc3)c2=O)cc1 [Compound 39] |
| 2.3 | COc1ccc(Cn2ccc(C)c(NC(=O)[C@H](Cc3ccc(N(O)C(=O)C(=O)O)cc3)NC(=O)Cc3cccc4ccccc34)c2=O)cc1 [Compound 1, 3-[2'-(S)-(1'"-Naphthylacetyl)amino-3'-[4"-(N-oxalyl, N-hydroxy)amino]benzene]propanoylamino-1-(4-methoxybenzyl)-4-methyl-2-pyridone] |
| 2.1 | COc1ccc(C(C)n2ccc(C)c(NC(=O)[C@H](Cc3ccc(CC(=O)O)cc3)NC(=O)Cc3cccc4ccccc34)c2=O)cc1 (some centres unmarked) [Compound 83] |
| 1.9 | COc1ccc(Cn2ccc(C)c(NC(=O)[C@H](Cc3ccc(NC(=O)C(=O)O)cc3)NC(=O)Cc3ccc(C(C)C)cc3)c2=O)cc1 [Compound 43] |
| 1.8 | COc1ccc(Cn2ccc(C)c(NC(=O)[C@H](Cc3ccc(NC(=O)C(=O)O)cc3)NC(=O)Cc3nc(-c4ccccc4)sc3C)c2=O)cc1 [Compound 15] |
| 1.6 | COc1ccc(Cn2ccc(C)c(NC(=O)[C@H](Cc3ccc(CC(=O)O)cc3)NC(=O)Cc3cccc(OC(C)(C)C)c3)c2=O)cc1 [Compound 164] |
| 1.5 | COc1ccc(Cn2ccc(C)c(NC(=O)[C@H](Cc3ccc(CC(=O)O)cc3)NC(=O)Cc3ccc4ccccc4c3)c2=O)cc1 [Compound 59, 3-[2'-(S)-(2'"-Naphthylacetyl)amino-3'-(4"-carboxymethyl)benzene]propanoylamino-1-(4-methoxybenzyl)-4-methyl-2-pyridone] |
| 1.4 | COCCCCn1ccc(C)c(NC(=O)C(Cc2ccc(C(C)(C)C(=O)O)cc2)NC(=O)C(C)(C)c2ccc3ccccc3c2)c1=O (centres unmarked) [Compound 236] |
| 1.2 | COc1ccc(Cn2ccc(C)c(NC(=O)[C@H](Cc3ccc(CC(=O)O)cc3)NC(=O)COc3cccc4c(N(C)C)cccc34)c2=O)cc1 [Compound 167] |
| 1.1 | COc1ccc(Cn2ccc(C)c(NC(=O)[C@H](Cc3ccc(NC(=O)C(=O)O)cc3)NC(=O)Cc3c(C)[nH]c4ccccc34)c2=O)cc1 [Compound 28] |
| 1 | COc1ccc(Cn2ccc(C)c(NC(=O)[C@H](Cc3ccc(CC(=O)O)cc3)NC(=O)Cc3ccc(C(C)(C)C)cc3)c2=O)cc1 [Compound 162] |
| 0.89 | CCCCCCn1ccc(C)c(NC(=O)C(Cc2ccc(C(C)(C)C(=O)O)cc2)NC(=O)Cc2cccs2)c1=O (centres unmarked) [Compound 206] |
| 0.68 | COc1ccc(Cn2ccc(C)c(NC(=O)[C@H](Cc3ccc(NC(=O)C(=O)O)cc3)NC(=O)CNC(=O)c3ccccc3C(=O)O)c2=O)cc1 [Compound 31] |
| 0.65 | COc1ccc(Cn2ccc(C)c(NC(=O)[C@H](Cc3ccc(NC(=O)C(=O)O)cc3)NC(=O)Cc3ccc(NC(=O)C(C)(C)C)cc3)c2=O)cc1 [Compound 104] |
| 0.43 | COc1ccc(Cn2ccc(C)c(NC(=O)[C@H](Cc3ccc(C(C)(C)C(=O)O)cc3)NC(=O)Cc3ccccc3)c2=O)cc1 [Compound 120] |
| 0.37 | COc1ccc(Cn2cc(Br)c(C)c(NC(=O)[C@H](Cc3ccc(C(C)(C)C(=O)O)cc3)NC(=O)C(C)(C)c3ccc(C(F)(F)F)cc3)c2=O)cc1 [Compound 227] |
| 0.14 | COc1ccc(Cn2cc(I)c(C)c(NC(=O)C(Cc3ccc(C(C)(C)C(=O)O)cc3)NC(=O)Cc3ccc4ccccc4c3)c2=O)cc1 (racemic) [Compound 229, 3-[2'-(R,S)-(2""-Naphthylacetyl)amino-3'4"-(1'"-carboxy-1'"-methyl)ethyl]benzene]propanoylamino-5-iodo-1-(4-methoxybenzyl)-4-methyl-2-pyridone] |
| 0.08 | COc1ccc(Cn2cc(Br)c(C)c(NC(=O)[C@H](Cc3ccc(C(C)(C)C(=O)O)cc3)NC(=O)Cc3ccc(C(F)(F)F)cc3)c2=O)cc1 [Compound 228] |
